According to PubChem BioAssay (NCI):
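Five compound concentrations were applied to cells in 96-well plates for 48 hours; endpoints were derived by simple linear interpolation of the resulting dose-response curve. The concentration for full growth arrest is given as TGI.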 Active and inactive are the calls of the source. Cut-off read from the data, not from the text of the source: active = GI50 below about 0.43 µM; inactive = the rest.

How the values were obtained:
Test in all cases: growth of human tumour cells (NCI), 48 h
[1] = system: A498 renal
[2] = system: A549 NSCLC
[3] = system: ACHN renal
[4] = system: CAKI-1 renal
[5] = system: CCRF-CEM leukemia
[6] = system: COLO 205 colon
[7] = system: DLD-1 colon
[8] = system: DMS 114 small cell lung
[9] = system: DMS 273 small cell lung
[10] = system: EKVX NSCLC
[11] = system: HCC-2998 colon
[12] = system: HCT-116 colon
[13] = system: HCT-15 colon
[14] = system: HL-60(TB) leukemia
[15] = system: HOP-62 NSCLC
[16] = system: HOP-92 NSCLC
[17] = system: HT29 colon
[18] = system: IGROV1 ovarian
[19] = system: K-562 leukemia
[20] = system: KM12 colon
[21] = system: KM20L2 colon
[22] = system: LOX IMVI melanoma
[23] = system: LXFL 529 NSCLC
[24] = system: M14 melanoma
[25] = system: M19-MEL melanoma
[26] = system: MOLT-4 leukemia
[27] = system: NCI-H226 lung
[28] = system: NCI-H23 lung
[29] = system: NCI-H460 lung
[30] = system: NCI-H522 lung
[31] = system: OVCAR-4 ovarian
[32] = system: OVCAR-5 ovarian
[33] = system: OVCAR-8 ovarian
[34] = system: RPMI-8226 leukemia
[35] = system: RXF 393 renal
[36] = system: RXF-631 renal
[37] = system: SF-268 CNS
[38] = system: SF-295 CNS
[39] = system: SF-539 CNS
[40] = system: SK-MEL-2 melanoma
[41] = system: SK-MEL-28 melanoma
[42] = system: SK-MEL-5 melanoma
[43] = system: SK-OV-3 ovarian
[44] = system: SN12C renal
[45] = system: SNB-19 CNS
[46] = system: SNB-75 CNS
[47] = system: SNB-78 CNS
[48] = system: SR leukemia
[49] = system: SW-620 colon
[50] = system: TK-10 renal
[51] = system: U251 CNS
[52] = system: UACC-257 melanoma
[53] = system: UACC-62 melanoma
[54] = system: UO-31 renal
[55] = system: XF 498 CNS
[56] = system: 786-0 renal
[57] = system: BT-549 breast
[58] = system: DU-145 prostate
[59] = system: HOP-18 NSCLC
[60] = system: HS 578T breast
[61] = system: MALME-3M melanoma
[62] = system: MCF7 breast
[63] = system: MDA-MB-231 breast
[64] = system: MDA-MB-435
[65] = system: MDA-N
[66] = system: NCI/ADR-RES ovarian
[67] = system: OVCAR-3 ovarian
[68] = system: PC-3 prostate

`O=C(Nc1ccccc1)C(=O)C(C(=O)c1ccccc1F)C1OC(=O)c2ccccc21` (centres undefined) gave a TGI [1] greater than 100 µM, a TGI [2] greater than 100 µM and a TGI [3] greater than 100 µM. For the same molecule, the TGI [4] was greater than 100 µM, the TGI [5] was greater than 100 µM and the TGI [6] was 43.2 µM. For the same molecule, the TGI [7] was greater than 100 µM, the TGI [8] was 61.7 µM and the TGI [9] was greater than 100 µM. For the same molecule, the TGI [10] was greater than 100 µM, the TGI [11] was 57.4 µM and the TGI [12] was 49.9 µM. For the same molecule, the TGI [13] was 67.3 µM, the TGI [14] was 75.6 µM and the TGI [15] was greater than 100 µM. The TGI [16] was greater than 100 µM, the TGI [17] was greater than 100 µM and the TGI [18] was greater than 100 µM. For the same molecule, the TGI [19] was greater than 100 µM, the TGI [20] was greater than 100 µM and the TGI [21] was greater than 100 µM. The TGI [22] was 63.2 µM, the TGI [23] was greater than 100 µM and the TGI [24] was greater than 100 µM. For the same molecule, the TGI [25] was greater than 100 µM, the TGI [26] was greater than 100 µM and the TGI [27] was 62.6 µM. The TGI [28] was greater than 100 µM, the TGI [29] was greater than 100 µM and the TGI [30] was 61.8 µM. The TGI [31] was greater than 100 µM, the TGI [32] was greater than 100 µM and the TGI [33] was 55 µM. It also gave a TGI [34] greater than 100 µM, a TGI [35] of 63.2 µM and a TGI [36] greater than 100 µM. For the same molecule, the TGI [37] was 81 µM, the TGI [38] was greater than 100 µM and the TGI [39] was 43.2 µM. For the same molecule, the TGI [40] was 93.8 µM, the TGI [41] was greater than 100 µM and the TGI [42] was greater than 100 µM. It also gave a TGI [43] greater than 100 µM, a TGI [44] greater than 100 µM and a TGI [45] greater than 100 µM. For the same molecule, the TGI [46] was 72.2 µM, the TGI [47] was greater than 100 µM and the TGI [48] was 77.9 µM. It also gave a TGI [49] greater than 100 µM, a TGI [50] greater than 100 µM and a TGI [51] of 46.9 µM. It also gave a TGI [52] greater than 100 µM, a TGI [53] greater than 100 µM and a TGI [54] greater than 100 µM. It also gave a TGI [55] greater than 100 µM.

`N#CCC(=O)N/N=C(\CCN1CCCC1)CC(c1ccccc1)c1c(O)c2ccccc2oc1=O` (centres undefined) showed a TGI [56] greater than 100 µM, a TGI [1] greater than 85.5 µM and a TGI [2] greater than 100 µM. It also gave a TGI [3] greater than 100 µM, a TGI [57] greater than 100 µM and a TGI [4] greater than 100 µM. It also gave a TGI [5] greater than 94.8 µM, a TGI [6] greater than 56.8 µM and a TGI [7] greater than 100 µM. For the same molecule, the TGI [58] was greater than 100 µM, the TGI [10] was greater than 100 µM and the TGI [11] was greater than 100 µM. The TGI [12] was greater than 100 µM, the TGI [13] was greater than 100 µM and the TGI [14] was 59.6 µM. The TGI [59] was greater than 100 µM, the TGI [15] was greater than 100 µM and the TGI [16] was greater than 100 µM. For the same molecule, the TGI [60] was greater than 100 µM, the TGI [17] was greater than 100 µM and the TGI [18] was greater than 100 µM. It also gave a TGI [19] greater than 100 µM, a TGI [20] greater than 100 µM and a TGI [21] greater than 100 µM. For the same molecule, the TGI [22] was greater than 64.7 µM, the TGI [23] was greater than 100 µM and the TGI [24] was greater than 100 µM. It also gave a TGI [25] greater than 100 µM, a TGI [61] greater than 100 µM and a TGI [62] of 45.9 µM. For the same molecule, the TGI [63] was greater than 100 µM, the TGI [64] was greater than 100 µM and the TGI [65] was greater than 100 µM. It also gave a TGI [26] of 61.5 µM, a TGI [27] greater than 100 µM and a TGI [28] greater than 100 µM. For the same molecule, the TGI [29] was greater than 100 µM, the TGI [30] was greater than 100 µM and the TGI [66] was greater than 100 µM. It also gave a TGI [67] greater than 100 µM, a TGI [31] greater than 100 µM and a TGI [32] greater than 100 µM. The TGI [33] was greater than 100 µM, the TGI [68] was greater than 100 µM and the TGI [34] was greater than 92.8 µM. It also gave a TGI [35] greater than 100 µM, a TGI [36] greater than 100 µM and a TGI [37] greater than 100 µM. The TGI [38] was greater than 100 µM, the TGI [39] was greater than 100 µM and the TGI [40] was greater than 100 µM. It also gave a TGI [41] greater than 100 µM, a TGI [42] greater than 100 µM and a TGI [43] greater than 100 µM. The TGI [44] was greater than 100 µM, the TGI [45] was greater than 100 µM and the TGI [46] was greater than 100 µM. The TGI [48] was 69.8 µM, the TGI [49] was greater than 100 µM and the TGI [50] was greater than 100 µM. For the same molecule, the TGI [51] was greater than 100 µM, the TGI [52] was greater than 100 µM and the TGI [53] was greater than 100 µM. For the same molecule, the TGI [54] was greater than 100 µM and the TGI [55] was greater than 100 µM.

In the case of `COC(=O)C1(COCc2ccccc2)CCCC2OC21` (centres undefined), the outcome [56] is reported as “inactive”, the outcome [2] is reported as “inactive” and the outcome [3] is reported as “inactive”. The outcome [4] was “inactive”, the outcome [5] was “inactive” and the outcome [6] was “inactive”. The outcome [7] was “inactive”, the outcome [8] was “inactive” and the outcome [9] was “inactive”. The outcome [10] was “inactive”, the outcome [11] was “inactive” and the outcome [12] was “inactive”. The outcome [13] was “inactive”, the outcome [14] was “inactive” and the outcome [15] was “inactive”. The outcome [16] was “inactive”, the outcome [17] was “inactive” and the outcome [18] was “inactive”. The outcome [19] was “inactive”, the outcome [20] was “inactive” and the outcome [21] was “inactive”. For the same molecule, the outcome [22] was “inactive”, the outcome [23] was “inactive” and the outcome [24] was “inactive”. The outcome [25] was “inactive”, the outcome [61] was “inactive” and the outcome [26] was “inactive”. The outcome [27] was “inactive”, the outcome [28] was “inactive” and the outcome [29] was “inactive”. For the same molecule, the outcome [30] was “inactive”, the outcome [67] was “inactive” and the outcome [31] was “inactive”. The outcome [32] was “inactive”, the outcome [33] was “inactive” and the outcome [34] was “inactive”. The outcome [35] was “inactive”, the outcome [36] was “inactive” and the outcome [37] was “inactive”. The outcome [38] was “inactive”, the outcome [39] was “inactive” and the outcome [40] was “inactive”. For the same molecule, the outcome [43] was “inactive”, the outcome [44] was “inactive” and the outcome [45] was “inactive”. The outcome [46] was “inactive”, the outcome [47] was “inactive” and the outcome [48] was “inactive”. For the same molecule, the outcome [49] was “inactive”, the outcome [51] was “inactive” and the outcome [52] was “inactive”. The outcome [53] was “inactive”, the outcome [54] was “inactive” and the outcome [55] was “inactive”.

`Cc1[nH]c2ccccc2c1-c1n[nH]c(=O)c2ccccc12` gave a TGI [56] greater than 100 µM, a TGI [1] of 63.5 µM and a TGI [2] greater than 100 µM. The TGI [3] was greater than 100 µM, the TGI [4] was greater than 100 µM and the TGI [5] was greater than 100 µM. For the same molecule, the TGI [7] was greater than 100 µM, the TGI [8] was 58.7 µM and the TGI [9] was 72.9 µM. The TGI [10] was greater than 100 µM, the TGI [11] was greater than 100 µM and the TGI [12] was 35.8 µM. For the same molecule, the TGI [13] was greater than 100 µM, the TGI [14] was 55.6 µM and the TGI [15] was 50.3 µM. For the same molecule, the TGI [17] was greater than 100 µM, the TGI [18] was greater than 100 µM and the TGI [19] was greater than 100 µM. The TGI [20] was greater than 100 µM, the TGI [21] was 92.6 µM and the TGI [23] was greater than 100 µM. The TGI [24] was greater than 100 µM, the TGI [25] was greater than 100 µM and the TGI [61] was 74.4 µM. It also gave a TGI [26] of 81.3 µM, a TGI [27] of 85.3 µM and a TGI [28] greater than 100 µM. For the same molecule, the TGI [29] was greater than 100 µM, the TGI [67] was 67.3 µM and the TGI [31] was greater than 100 µM. For the same molecule, the TGI [32] was greater than 100 µM, the TGI [33] was greater than 100 µM and the TGI [34] was 74.7 µM. It also gave a TGI [35] of 37.1 µM, a TGI [36] of 66.1 µM and a TGI [38] of 91.8 µM. It also gave a TGI [39] greater than 100 µM, a TGI [40] greater than 100 µM and a TGI [41] greater than 100 µM. For the same molecule, the TGI [42] was 41 µM, the TGI [43] was 72.1 µM and the TGI [46] was 57.9 µM. For the same molecule, the TGI [47] was greater than 100 µM, the TGI [49] was greater than 100 µM and the TGI [50] was greater than 100 µM. The TGI [51] was greater than 100 µM, the TGI [52] was greater than 100 µM and the TGI [53] was greater than 100 µM. The TGI [54] was 61.9 µM and the TGI [55] was 76.2 µM.
